Results published in patent US20230331718A1, “COMPOSITIONS FOR MODULATING SPLICING” (Skyhawk Therapeutics, Inc., priority 2020, published 2023).

Assays:
SMN2 Protein = test: SMN Protein Assay (MSD); assay type: cell-based, human; conditions: SMA patient fibroblasts, 48 hours, 0.6 nM to 2.5 µM
Protocol: Spinal muscular atrophy (SMA) patient fibroblasts were plated in 96-well plates at 7,000 cells/well. Compounds were added in concentrations ranging from 0.6 nM to 2.5 µM, incubated for 48 hours and the cells were lysed with 100 µL of lysis buffer. 20 µL of lysate was used for SMN protein measurement by Mesoscale Discovery (MSD) assay developed by PharmOptima (Michigan). A standard curve prepared with SMN protein ranging from 1 µg/ml to 19.5pg/ml was used in each MSD plate to calculate the absolute SMN protein amount in each sample.

[1] = tested on: SMN2 Splicing D7 (SMN Δ7 transcript); test: SMN Quantitative Splicing Assay (qPCR); assay type: cell-based, human; conditions: 24 h, SMA patient fibroblasts (GM03813), 2.5 µM to 0.6 nM
Protocol: Spinal muscular atrophy (SMA) patient fibroblasts (GM03813, Coriell) were plated in 96-well plates at 50,000 cells/well. […] Treated cells were lysed and cDNA synthesized using the Fast Advanced Cells-to-Ct kit (Thermofisher A35378) according to the manufacturer’s instructions. 2 µL of each cDNA were used in qPCR reactions. […] Reactions were run in a Quant Studio 6 qPCR instrument with default settings.

Structure (SMILES)	EC50 (SMN2 Protein)	IC50 ([1]; Homo sapiens, Fibroblast)	IC50 [1]
CN(c1cnc(-c2cc3ccn(C)c(=O)c3cc2O)nn1)[C@@H]1CC2CCC(N2)[C@@H]1F (single isomer, unassigned) [Compound 4A]	16 to 50 nM	16 to 50 nM	–
Cc1nc2cc(O)c(-c3ncc(N(C)[C@H]4CC5CC[C@@H](N5)[C@H]4F)nn3)cc2nc1C [Compound 85]	16 to 50 nM	0.01 to 15 nM	–
CCn1c(C)nc2cc(-c3ncc(N(C)[C@@H]4CC5CC(F)(F)C(C4)N5)nn3)c(O)cc2c1=O (some centres unmarked) [Compound 214]	501 to 10000 nM	501 to 10000 nM	–
CN(c1cnc(-c2cc3ccn(C)c(=O)c3cc2O)nn1)C1CC2CC(F)(F)C(C1)N2 (centres unmarked) [Compound 141]	101 to 500 nM	–	101 to 500 nM
CN(c1cnc(-c2cc3c(=O)n(C)cnc3cc2O)nn1)C1CC2CCC(N2)[C@@H]1F (some centres unmarked) [Compound 140]	16 to 50 nM	101 to 500 nM	–
CN(c1cnc(-c2cc3occc(=O)c3cc2O)nn1)[C@@H]1CC2COC[C@@H](C1)N2 [Compound 69]	0.01 to 15 nM	0.01 to 15 nM	–
CN(c1cnc(-c2cc3ncn(C)c(=O)c3cc2O)nn1)C1C[C@]2(C)CCC(N2)[C@H]1F (some centres unmarked) [Compound 36]	16 to 50 nM	16 to 50 nM	–
Cc1cc(=O)c2cc(O)c(-c3ncc(N(C)C4CC5CCCC(N5)C4F)nn3)cc2o1 (centres unmarked) [Compound 128]	0.01 to 15 nM	16 to 50 nM	–
CN(c1cnc(-c2cc3ncn(C(F)F)c(=O)c3cc2O)nn1)[C@H]1CC2CC[C@@H](N2)[C@H]1F [Compound 195]	0.01 to 15 nM	0.01 to 15 nM	–
Cc1nc2cc(-c3ncc(N(C)[C@H]4CC5CC[C@@H](N5)[C@H]4F)nn3)c(O)cc2c(=O)n1C [Compound 205]	0.01 to 15 nM	0.01 to 15 nM	–
CCn1cnc2cc(-c3ncc(N(C)C4CC5CCC(N5)[C@@H]4F)nn3)c(O)cc2c1=O (some centres unmarked) [Compound 31]	51 to 100 nM	51 to 100 nM	–
CN(c1cnc(-c2cc3occ(C(F)(F)F)c(=O)c3cc2O)nn1)[C@@H]1C[C@H]2CC[C@H](N2)[C@@H]1F [Compound 89]	51 to 100 nM	101 to 500 nM	–
CN(c1cnc(-c2cc3ccn(C)c(=O)c3cc2O)nn1)[C@@H]1C[C@@]2(C)CC[C@H](N2)[C@@H]1F [Compound 174]	0.01 to 15 nM	0.01 to 15 nM	–
CN(c1cnc(-c2cc3c(F)cn(C)c(=O)c3cc2O)nn1)[C@H]1C[C@@H]2CCC(N2)[C@H]1F [Compound 66, 4-Fluoro-6-(6-{[(2R,3S,5S)-2-fluoro-8-azabicyclo[3.2.1]octan-3-yl](methyl)amino}-1,2,4-triazin-3-yl)-7-hydroxy-2-methylisoquinolin-1-one]	0.01 to 15 nM	0.01 to 15 nM	–
CN(c1cnc(-c2cc3c(F)cn(C)c(=O)c3cc2O)nn1)[C@@H]1CC2CC[C@](C)(N2)[C@@H]1F [Compound 188]	0.01 to 15 nM	0.01 to 15 nM	–
CN(c1cnc(-c2cc3oc(C(F)(F)F)cc(=O)c3cc2O)nn1)[C@H]1C[C@@H]2CCCC(N2)[C@H]1F [Compound 166]	0.01 to 15 nM	16 to 50 nM	–
CN(c1cnc(-c2cc3c(F)cn(C)c(=O)c3cc2O)nn1)[C@H]1C[C@@H]2CC[C@@](C)(N2)[C@H]1F [Compound 187]	0.01 to 15 nM	0.01 to 15 nM	–
CCn1cc(F)c2cc(-c3ncc(N(C)[C@H]4CC5CC(F)(F)C(C4)N5)nn3)c(O)cc2c1=O (some centres unmarked) [Compound 212]	501 to 10000 nM	51 to 100 nM	–
CCn1c(C)nc2cc(-c3ncc(N(C)[C@H]4CC5CC(F)(F)C(C4)N5)nn3)c(O)cc2c1=O (some centres unmarked) [Compound 215]	16 to 50 nM	16 to 50 nM	–
Cc1cc(=O)c2cc(O)c(-c3ncc(N(C)[C@@H]4C[C@H]5CCC(N5)[C@@H]4F)nn3)cc2o1 (single isomer, unassigned) [Compound 6A]	0.01 to 15 nM	16 to 50 nM	–
CN(c1cnc(-c2cc3occc(=O)c3cc2O)nn1)[C@H]1C[C@@H]2CCC(N2)[C@H]1F [Compound 18]	0.01 to 15 nM	0.01 to 15 nM	–
CCn1c(C)c(F)c2cc(-c3ncc(N(C)[C@H]4C[C@@H]5CCC(N5)[C@H]4F)nn3)c(O)cc2c1=O [Compound 223]	0.01 to 15 nM	0.01 to 15 nM	–
CN(c1cnc(-c2cc3ccn(C)c(=O)c3cc2O)nn1)[C@H]1C[C@]2(C)COC[C@](C)(C1)N2 [Compound 152]	0.01 to 15 nM	0.01 to 15 nM	–
CN(c1cnc(-c2cc3ncn(C)c(=O)c3cc2O)nn1)[C@H]1CC2CCC(N2)[C@H]1F (single isomer, unassigned) [Compound 3B]	0.01 to 15 nM	0.01 to 15 nM	–
Cc1cnc2cc(-c3ncc(N(C)[C@H]4CC5CCCC(N5)[C@H]4F)nn3)c(O)cc2n1 (some centres unmarked) [Compound 106]	0.01 to 15 nM	16 to 50 nM	–
CN(c1cnc(-c2cc3ncn(C)c(=O)c3cc2O)nn1)[C@@H]1CC2CCC(N2)[C@@H]1F (single isomer, unassigned) [Compound 3A]	16 to 50 nM	16 to 50 nM	–

Structure (SMILES)	EC50 (SMN2 Protein)	IC50 ([1]; Homo sapiens, Fibroblast)	IC50 [1]
Cc1nc2cc(O)c(-c3ncc(N(C)[C@@H]4CC5CC[C@H](N5)[C@@H]4F)nn3)cc2nc1C [Compound 55]	16 to 50 nM	16 to 50 nM	–
CN(c1cnc(-c2cc3nccnc3cc2O)nn1)[C@@H]1CC2CC[C@H](N2)[C@@H]1F [Compound 57]	16 to 50 nM	–	101 to 500 nM
CN(c1cnc(-c2cc3ncn(C)c(=O)c3cc2O)nn1)C1C[C@@]2(C)CCC(N2)[C@@H]1F (some centres unmarked) [Compound 35]	0.01 to 15 nM	0.01 to 15 nM	–
CN(c1cnc(-c2cc3ncn(C)c(=O)c3cc2O)nn1)[C@@H]1C[C@H]2CCCC(N2)[C@@H]1F [Compound 124]	16 to 50 nM	16 to 50 nM	–
CN(c1cnc(-c2cc3ccn(C)c(=O)c3cc2O)nn1)[C@H]1CC2CCC(N2)[C@H]1F (single isomer, unassigned) [Compound 4B]	0.01 to 15 nM	0.01 to 15 nM	–
Cc1cnc2cc(-c3ncc(N(C)[C@H]4C[C@@H]5CCC(N5)[C@H]4F)nn3)c(O)cc2n1 (single isomer, unassigned) [Compound 54]	101 to 500 nM	16 to 50 nM	–
Cc1cc(=O)c2cc(-c3ncc(N(C)[C@@H]4CC5CCCC(N5)[C@@H]4F)nn3)c(O)cc2o1 (some centres unmarked) [Compound 111]	51 to 100 nM	101 to 500 nM	–
Cc1c(F)c2cc(-c3ncc(N(C)[C@H]4C[C@@H]5CC[C@@H](N5)[C@H]4F)nn3)c(O)cc2c(=O)n1C [Compound 204]	0.01 to 15 nM	0.01 to 15 nM	–
CN(c1cnc(-c2cc3cnccc3cc2O)nn1)[C@H]1C[C@@H]2CC[C@@H](N2)[C@H]1F (single isomer, unassigned) [Compound 5B]	0.01 to 15 nM	16 to 50 nM	–
CN(c1cnc(-c2cc3occ(C(F)(F)F)c(=O)c3cc2O)nn1)[C@H]1C[C@@H]2CC[C@@H](N2)[C@H]1F [Compound 90]	16 to 50 nM	16 to 50 nM	–
Cc1cc2cc(O)c(-c3ncc(N(C)[C@H]4CC5CCC(N5)[C@H]4F)nn3)cc2cn1 (some centres unmarked) [Compound 46]	0.01 to 15 nM	0.01 to 15 nM	–
CN(c1cnc(-c2cc3ncn(C)c(=O)c3cc2O)nn1)C1CC2CC[C@](C)(N2)[C@@H]1F (some centres unmarked) [Compound 135]	0.01 to 15 nM	0.01 to 15 nM	–
CN(c1cnc(-c2cc3c(=O)ccoc3cc2O)nn1)[C@H]1CC2CCCC(N2)[C@H]1F (some centres unmarked) [Compound 110]	101 to 500 nM	51 to 100 nM	–
CN(c1cnc(-c2cc3ncn(C)c(=O)c3cc2O)nn1)C1CC2CC(F)(F)C(C1)N2 (centres unmarked) [Compound 143]	51 to 100 nM	–	101 to 500 nM
CN(c1cnc(-c2cc3ncccc3cc2O)nn1)[C@H]1C[C@@H]2CCC(N2)[C@H]1F [Compound 58]	16 to 50 nM	16 to 50 nM	–
CN(c1cnc(-c2cc3occc(=O)c3cc2O)nn1)[C@H]1C[C@]2(C)CCC[C@@](C)(N2)[C@H]1F [Compound 64]	0.01 to 15 nM	0.01 to 15 nM	–
CN(c1cnc(-c2cc3cc[nH]c(=O)c3cc2O)nn1)[C@H]1C[C@@H]2CCC(N2)[C@H]1F [Compound 169]	0.01 to 15 nM	16 to 50 nM	–
Cc1cc2cc(O)c(-c3ncc(N(C)[C@@H]4CC5CCC(N5)[C@@H]4F)nn3)cc2cn1 (some centres unmarked) [Compound 45]	16 to 50 nM	16 to 50 nM	–
Cc1cnc2cc(-c3ncc(N(C)[C@@H]4CC5CC[C@H](N5)[C@@H]4F)nn3)c(O)cc2n1 [Compound 53]	101 to 500 nM	51 to 100 nM	–
CCc1coc2cc(-c3ncc(N(C)[C@@H]4C[C@H]5CC[C@H](N5)[C@@H]4F)nn3)c(O)cc2c1=O [Compound 93]	16 to 50 nM	16 to 50 nM	–
CCC1C[C@@H](N(C)c2cnc(-c3cc4oc(C(F)(F)F)c(C)c(=O)c4cc3O)nn2)[C@@H](F)[C@H](C)N1 (some centres unmarked) [Compound 79]	16 to 50 nM	101 to 500 nM	–
CN(c1cnc(-c2cc3cnn(C)c(=O)c3cc2O)nn1)[C@H]1C[C@@H]2CC[C@@](C)(N2)[C@H]1F [Compound 183]	0.01 to 15 nM	0.01 to 15 nM	–
CN(c1cnc(-c2cc3cnn(C)c(=O)c3cc2O)nn1)C1CC2CCCC(N2)C1F (centres unmarked) [Compound 131]	0.01 to 15 nM	–	0.01 to 15 nM
Cc1cc2cc(-c3ncc(N(C)[C@H]4CC5CCCC(N5)[C@H]4F)nn3)c(O)cc2cn1 (some centres unmarked) [Compound 48]	0.01 to 15 nM	0.01 to 15 nM	–
CN(c1cnc(-c2cc3occc(=O)c3cc2O)nn1)[C@H]1C[C@]2(C)CC[C@@](C)(N2)[C@H]1F [Compound 62]	0.01 to 15 nM	0.01 to 15 nM	–
Cc1cc2cc(-c3ncc(N(C)[C@@H]4CC5CCCC(N5)[C@@H]4F)nn3)c(O)cc2cn1 (some centres unmarked) [Compound 47]	16 to 50 nM	51 to 100 nM	–
